Residue numbers refer to the chain shown, from its start.
Columns and labels:
Type in all cases: cell-based
[1] = target: T1, rat P2X4 rH140R mutant (Rattus norvegicus, UniProt P51577, H140R); test: Two-Electrode Voltage Clamp recording, rat P2X4 H140R mutant in Xenopus oocytes; settings: for fold reduced affinity as compared with rWT: rH140R mutant vs rWT, from EC50; for EC50 / nucleotide-evoked currents: rH140R mutant; for EC50: oocytes held at −70 mV, n = 9-10, read-out: EC50 (evoked current, dose-response); for nucleotide-evoked currents: 3 mM GTP, 3 mM UTP (Fig. S4)
T1 construct: rat P2X4 (NP_113782.1; WT and mutants) were transcribed from pGEMHE plasmids; expressed in transfected cells; host or cells: Xenopus laevis oocytes injected with cRNA from pGEMHE
T1 sequence (P51577 1-388 H140R): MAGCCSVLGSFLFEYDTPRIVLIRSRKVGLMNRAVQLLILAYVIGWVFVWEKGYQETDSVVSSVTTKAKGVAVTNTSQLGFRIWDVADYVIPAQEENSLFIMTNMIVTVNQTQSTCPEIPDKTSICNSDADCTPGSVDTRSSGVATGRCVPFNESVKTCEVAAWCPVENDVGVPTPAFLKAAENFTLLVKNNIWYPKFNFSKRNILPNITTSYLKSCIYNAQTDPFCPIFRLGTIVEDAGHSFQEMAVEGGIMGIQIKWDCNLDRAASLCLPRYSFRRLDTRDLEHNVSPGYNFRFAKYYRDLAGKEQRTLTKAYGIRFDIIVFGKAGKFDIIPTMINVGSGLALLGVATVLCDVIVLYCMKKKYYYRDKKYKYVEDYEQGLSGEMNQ
Experimental: (§1) Figure 4 Current responses of ^rWT, ^rT186S, ^rH140A and ^rH140R evoked by ATP and CTP. (A,B) Representative currents of ^rWT evoked by ATP (1–300 μM) (A) and CTP (10–10,000 μM) (B). (C,D) Representative currents of the ^rT186S mutant evoked by ATP (1–300 μM) (C) and CTP (10–10,000 μM) (D). (E,F) Representative currents of the ^rH140A mutant evoked by ATP (1–300 μM) (E) and CTP (10–10,000 μM) (F). (G,H) Representative currents of the ^rH140R mutant evoked by ATP (1–300 μM) (G) and CTP (10–10,000 μM) (H). (I–K) Concentration-response curves evoked by ATP and CTP in the ^rWT and the ^rT186S mutant (I), in the ^rWT and the ^rH140A mutant (J) and in the ^rWT and the ^rH140R mutant (K). Symbols are defined in the figure, and bars depict means ± SEM (n = 7–9).
(§2) Next we assessed the functional role of R143 in zfP2X4, as its side chain forms a hydrogen bond with the cytosine ring in the CTP-bound structure (Fig. 3A,B). This arginine residue is substituted with a similar basic residue, histidine (^rH140), in rat P2X4 (Fig. 3E).
(§3) The cRNAs encoding zebrafish P2X4 (NP_705939; WT) and rat P2X4 (NP_113782.1; WT and mutants) were transcribed from pGEMHE plasmids, using a mMessage mMachine® T7 ULTRA kit (Ambion, Huntingdon, Cambridgeshire, UK). Xenopus laevis oocytes were prepared, and RNA (100 ng for zebrafish P2X4, and 20 ng for rat P2X4) was injected into the oocytes. The oocytes were incubated at 18 °C in Barth’s solution, containing 88 mM NaCl, 1 mM KCl, 2.4 mM NaHCO3, 10 mM HEPES, 0.33 mM Ca(NO3)2, 0.41 mM CaCl2, and 0.82 mM MgSO4, pH 7.4, supplemented with 50 μg/ml gentamicin, and were used for recording after 2–3 days. Recording solutions contained 100 mM NaCl, 5 mM HEPES, 2 mM MgCl2, pH 7.3, and nucleoside triphosphates (ATP, CTP, GTP, and UTP), which were freshly prepared each day. Oocytes were held at −70 mV with a bath-clamp amplifier (OC-725C, Warner Co., USA), and macroscopic currents were recorded and analyzed using the pClamp 10 software (Molecular Devices, USA)[33][34]. We measured n = 4 for zebrafish P2X4 data and n = 7–9 for rat P2X4 data.

[2] = target: T2, rat P2X4 rH140A mutant (Rattus norvegicus, UniProt P51577, H140A); test: Two-Electrode Voltage Clamp recording, rat P2X4 H140A mutant in Xenopus oocytes; settings: for fold reduced affinity as compared with rWT: rH140A mutant vs rWT, from EC50; for EC50 / nucleotide-evoked currents: rH140A mutant; for EC50: oocytes held at −70 mV, n = 7-8, read-out: EC50 (evoked current, dose-response); for nucleotide-evoked currents: 3 mM GTP, 3 mM UTP (Fig. S4)
T2 construct: rat P2X4 (NP_113782.1; WT and mutants) were transcribed from pGEMHE plasmids; expressed in transfected cells; host or cells: Xenopus laevis oocytes injected with cRNA from pGEMHE
T2 sequence (P51577 1-388 H140A): T1 sequence (P51577 1-388 H140R) with R140A
Experimental: as §1, §2, §3

[3] = target: T3, rat P2X4 rT186S mutant (Rattus norvegicus, UniProt P51577, T186S); test: Two-Electrode Voltage Clamp recording, rat P2X4 T186S mutant in Xenopus oocytes; settings: for nucleotide-evoked currents: GTP and UTP applied at 3 mM (Fig. S4); for EC50: oocytes held at −70 mV, n = 9, read-out: EC50 (evoked current, dose-response)
T3 construct: rat P2X4 (NP_113782.1; WT and mutants) were transcribed from pGEMHE plasmids; expressed in transfected cells; host or cells: Xenopus laevis oocytes injected with cRNA from pGEMHE
T3 sequence (P51577 1-388 T186S): T1 sequence (P51577 1-388 H140R) with R140H, T186S
Description: To further investigate the functional roles of the residues involved in the base recognition, T189 and R143, we performed an electrophysiological analysis with the rat P2X4, since its electrophysiological properties have been well established. We first assessed the functional role of T189 in zfP2X4 and introduced mutations at the equivalent residue of the rat P2X4 to create three mutants (^rT186A, ^rT186V and ^rT186S; the superscript “r” means rat P2X4). […] Therefore, we examined the ^rWT and the ^rT186S mutant.
as §1, §3

Compound | fold reduced affinity as compared with rWT [1] | EC50 [1] [µM] | fold reduced affinity as compared with rWT [2] | EC50 [2] [µM] | nucleotide-evoked currents [3] | EC50 [3] [µM] | nucleotide-evoked currents [1] | nucleotide-evoked currents [2]
Nc1ccn([C@@H]2O[C@H](COP(=O)(O)OP(=O)(O)OP(=O)(O)O)[C@@H](O)[C@H]2O)c(=O)n1 [CTP] | about 2 fold | 1100 ± 140 | ~14 fold | 7990 | ATP- and CTP-evoked currents were detected | 557 ± 120 | – | –
Nc1nc2c(ncn2[C@@H]2O[C@H](COP(=O)(O)OP(=O)(O)OP(=O)(O)O)[C@@H](O)[C@H]2O)c(=O)[nH]1 [GTP] | – | – | – | – | no GTP- and UTP-evoked currents were detected | – | no GTP- and UTP-evoked currents were detected | no GTP- and UTP-evoked currents were detected
Nc1ncnc2c1ncn2[C@@H]1O[C@H](COP(=O)(O)OP(=O)(O)OP(=O)(O)O)[C@@H](O)[C@H]1O [ATP, Adenosine 5-triphosphate] | about 2 fold | 39.4 ± 5 | about 2.5 fold | 42.8 ± 6.3 | ATP- and CTP-evoked currents were detected | 29.9 ± 3.1 | – | –
O=c1ccn([C@@H]2O[C@H](COP(=O)(O)OP(=O)(O)OP(=O)(O)O)[C@@H](O)[C@H]2O)c(=O)[nH]1 [UTP] | – | – | – | – | no GTP- and UTP-evoked currents were detected | – | no GTP- and UTP-evoked currents were detected | no GTP- and UTP-evoked currents were detected

Reference: publication PMC5362899, “Structural insights into the nucleotide base specificity of P2X receptors” (Scientific Reports, 2017)
